This note sets out measurements from patent US12065442B2, “Tropomyosin receptor kinase (TRK) degradation compounds and methods of use” (Cullgen (Shanghai), Inc., priority 2018, dated 2024).

The test system of this experiment is KM12 cells. The experiment in a line: Cell viability assay (CellTiter-Glo) in KM12 cells. The conditions noted are these: Homo sapiens, 72 h, KM12 cell viability, CellTiter-Glo, 3 days, read-out: IC50. The experiment is classed as cell-based. On the technique in general: In ATP-based viability assays light output follows the ATP content of the culture.

SMILES strings stand for the structures. Like-named read-outs stand apart in the source and are kept apart here.

In general, IC50 refers to the concentration at which inhibition is half-maximal.

Consider `O=C1CCC(N2C(=O)c3cccc(NCCOCCOCCOCCOCCOCCC(=O)N4CCN(c5cccc(-c6cnc7ccc(N8CCC[C@@H]8c8cccc(F)c8)nn67)n5)CC4)c3C2=O)C(=O)N1` (stereo partly drawn) [CPD-025, 2-(2,6-Dioxopiperidin-3-yl)-4-((18-(4-(6-(6-((R)-2-(3-fluorophenyl)pyrrolidin-1-yl)imidazo[1,2-b]pyridazin-3-yl)pyridin-2-yl)piperazin-1-yl)-18-oxo-3,6,9,12,15-pentaoxaoctadecyl)amino)isoindoline-1,3-dione], for which the IC50 (Table 2) came to 16.7 nM.

With `O=C1CCC(N2C(=O)c3cccc(NCCCCCCC(=O)N4CCN(c5ccc(C(=O)Nc6n[nH]c7ccc(Cc8cc(F)cc(F)c8)cc67)c(NC6CCOCC6)c5)CC4)c3C2=O)C(=O)N1` (centres unmarked) [CPD-049, N-(5-(3,5-difluorobenzyl)-1H-indazol-3-yl)-4-(4-(7-((2-(2,6-dioxopiperidin-3-yl)-1,3-dioxoisoindolin-4-yl)amino)heptanoyl)piperazin-1-yl)-2-((tetrahydro-2H-pyran-4-yl)amino)benzamide], the IC50 (Table 2) amounted to 73 nM.

As for `O=C1CCC(n2c(=O)n(CCCN3CCN(c4cccc(-c5cnc6ccc(N7CCC[C@@H]7c7cccc(F)c7)nn56)n4)CC3)c3ccccc32)C(=O)N1` (stereo partly drawn) [TR-228, 3-(3-(3-(4-(6-(6-((R)-2-(3-Fluorophenyl)pyrrolidin-1-yl)imidazo[1,2-b]pyridazin-3-yl)pyridin-2-yl)piperazin-1-yl)propyl)-2-oxo-2,3-dihydro-1H-benzo[d]imidazol-1-yl)piperidine-2,6-dione], the IC50 (Table 4) is 56.3 nM.

With `O=C1CCC(N2Cc3cc(N4CCN(c5cccc(-c6cnc7ccc(N8CCC[C@@H]8c8cccc(F)c8)nn67)n5)CC4)ccc3C2=O)C(=O)N1` (stereo partly drawn) [TR-207, 3-(5-(4-(6-(6-((R)-2-(3-Fluorophenyl)pyrrolidin-1-yl)imidazo[1,2-b]pyridazin-3-yl)pyridin-2-yl)piperazin-1-yl)-1-oxoisoindolin-2-yl)piperidine-2,6-dione], the IC50 (Table 4) worked out at 31.3 nM.

In the case of `O=C1CCC(N2C(=O)c3ccc(NCCNC4CN(c5cccc(-c6cnc7ccc(N8CCC[C@@H]8c8cccc(F)c8)nn67)n5)C4)cc3C2=O)C(=O)N1` (stereo partly drawn) [TR-192, 2-(2,6-Dioxopiperidin-3-yl)-5-((2-((1-(6-(6-((R)-2-(3-fluorophenyl)pyrrolidin-1-yl)imidazo[1,2-b]pyridazin-3-yl)pyridin-2-yl)azetidin-3-yl)amino)ethyl)amino)isoindoline-1,3-dione], the IC50 (Table 3) came out at 103 nM.

As to `O=C(CN1CCN(c2ccc(C(=O)Nc3n[nH]c4ccc(Cc5cc(F)cc(F)c5)cc34)c(NC3CCOCC3)c2)CC1)NCCOCCNc1ccc2c(c1)C(=O)N(C1CCC(=O)NC1=O)C2=O` (centres unmarked) [TR-161, N-(5-(3,5-Difluorobenzyl)-1H-indazol-3-yl)-4-(4-(2-((2-(2-((2-(2,6-dioxopiperidin-3-yl)-1,3-dioxoisoindolin-5-yl)amino)ethoxy)ethyl)amino)-2-oxoethyl)piperazin-1-yl)-2-((tetrahydro-2H-pyran-4-yl)amino)benzamide], for the setting “Table 3”, the IC50 stood at 4.7 nM.

Turning to `O=C(CN1CCN(c2ccc(C(=O)Nc3n[nH]c4ccc(Cc5cc(F)cc(F)c5)cc34)c(NC3CCOCC3)c2)CC1)NCCCNc1ccc2c(c1)C(=O)N(C1CCC(=O)NC1=O)C2=O` (centres unmarked) [TR-167, N-(5-(3,5-Difluorobenzyl)-1H-indazol-3-yl)-4-(4-(2-((3-((2-(2,6-dioxopiperidin-3-yl)-1,3-dioxoisoindolin-5-yl)amino)propyl)amino)-2-oxoethyl)piperazin-1-yl)-2-((tetrahydro-2H-pyran-4-yl)amino)benzamide], for the setting “Table 3”, the 50% inhibitory concentration (IC50) is 3.3 nM.

`O=C(CN1CCN(c2ccc(C(=O)Nc3n[nH]c4ccc(Cc5cc(F)cc(F)c5)cc34)c(NC3CCOCC3)c2)CC1)NCCOCCOCCOCCOCCOCCNc1ccc2c(c1)C(=O)N(C1CCC(=O)NC1=O)C2=O` (centres unmarked) [TR-166, N-(5-(3,5-Difluorobenzyl)-1H-indazol-3-yl)-4-(4-(20-((2-(2,6-dioxopiperidin-3-yl)-1,3-dioxoisoindolin-5-yl)amino)-2-oxo-6,9,12,15,18-pentaoxa-3-azaicosyl)piperazin-1-yl)-2-((tetrahydro-2H-pyran-4-yl)amino)benzamide]: for the setting “Table 3”, the IC50 is 4.4 nM.
